Results on eleven molecules are retold here after patent US11370761B2, “Voltage-dependent T-type calcium channel inhibitor” (Nippon Chemiphar Co., Ltd., priority 2017, dated 2022).

T1 sequence (O95180 whole entry): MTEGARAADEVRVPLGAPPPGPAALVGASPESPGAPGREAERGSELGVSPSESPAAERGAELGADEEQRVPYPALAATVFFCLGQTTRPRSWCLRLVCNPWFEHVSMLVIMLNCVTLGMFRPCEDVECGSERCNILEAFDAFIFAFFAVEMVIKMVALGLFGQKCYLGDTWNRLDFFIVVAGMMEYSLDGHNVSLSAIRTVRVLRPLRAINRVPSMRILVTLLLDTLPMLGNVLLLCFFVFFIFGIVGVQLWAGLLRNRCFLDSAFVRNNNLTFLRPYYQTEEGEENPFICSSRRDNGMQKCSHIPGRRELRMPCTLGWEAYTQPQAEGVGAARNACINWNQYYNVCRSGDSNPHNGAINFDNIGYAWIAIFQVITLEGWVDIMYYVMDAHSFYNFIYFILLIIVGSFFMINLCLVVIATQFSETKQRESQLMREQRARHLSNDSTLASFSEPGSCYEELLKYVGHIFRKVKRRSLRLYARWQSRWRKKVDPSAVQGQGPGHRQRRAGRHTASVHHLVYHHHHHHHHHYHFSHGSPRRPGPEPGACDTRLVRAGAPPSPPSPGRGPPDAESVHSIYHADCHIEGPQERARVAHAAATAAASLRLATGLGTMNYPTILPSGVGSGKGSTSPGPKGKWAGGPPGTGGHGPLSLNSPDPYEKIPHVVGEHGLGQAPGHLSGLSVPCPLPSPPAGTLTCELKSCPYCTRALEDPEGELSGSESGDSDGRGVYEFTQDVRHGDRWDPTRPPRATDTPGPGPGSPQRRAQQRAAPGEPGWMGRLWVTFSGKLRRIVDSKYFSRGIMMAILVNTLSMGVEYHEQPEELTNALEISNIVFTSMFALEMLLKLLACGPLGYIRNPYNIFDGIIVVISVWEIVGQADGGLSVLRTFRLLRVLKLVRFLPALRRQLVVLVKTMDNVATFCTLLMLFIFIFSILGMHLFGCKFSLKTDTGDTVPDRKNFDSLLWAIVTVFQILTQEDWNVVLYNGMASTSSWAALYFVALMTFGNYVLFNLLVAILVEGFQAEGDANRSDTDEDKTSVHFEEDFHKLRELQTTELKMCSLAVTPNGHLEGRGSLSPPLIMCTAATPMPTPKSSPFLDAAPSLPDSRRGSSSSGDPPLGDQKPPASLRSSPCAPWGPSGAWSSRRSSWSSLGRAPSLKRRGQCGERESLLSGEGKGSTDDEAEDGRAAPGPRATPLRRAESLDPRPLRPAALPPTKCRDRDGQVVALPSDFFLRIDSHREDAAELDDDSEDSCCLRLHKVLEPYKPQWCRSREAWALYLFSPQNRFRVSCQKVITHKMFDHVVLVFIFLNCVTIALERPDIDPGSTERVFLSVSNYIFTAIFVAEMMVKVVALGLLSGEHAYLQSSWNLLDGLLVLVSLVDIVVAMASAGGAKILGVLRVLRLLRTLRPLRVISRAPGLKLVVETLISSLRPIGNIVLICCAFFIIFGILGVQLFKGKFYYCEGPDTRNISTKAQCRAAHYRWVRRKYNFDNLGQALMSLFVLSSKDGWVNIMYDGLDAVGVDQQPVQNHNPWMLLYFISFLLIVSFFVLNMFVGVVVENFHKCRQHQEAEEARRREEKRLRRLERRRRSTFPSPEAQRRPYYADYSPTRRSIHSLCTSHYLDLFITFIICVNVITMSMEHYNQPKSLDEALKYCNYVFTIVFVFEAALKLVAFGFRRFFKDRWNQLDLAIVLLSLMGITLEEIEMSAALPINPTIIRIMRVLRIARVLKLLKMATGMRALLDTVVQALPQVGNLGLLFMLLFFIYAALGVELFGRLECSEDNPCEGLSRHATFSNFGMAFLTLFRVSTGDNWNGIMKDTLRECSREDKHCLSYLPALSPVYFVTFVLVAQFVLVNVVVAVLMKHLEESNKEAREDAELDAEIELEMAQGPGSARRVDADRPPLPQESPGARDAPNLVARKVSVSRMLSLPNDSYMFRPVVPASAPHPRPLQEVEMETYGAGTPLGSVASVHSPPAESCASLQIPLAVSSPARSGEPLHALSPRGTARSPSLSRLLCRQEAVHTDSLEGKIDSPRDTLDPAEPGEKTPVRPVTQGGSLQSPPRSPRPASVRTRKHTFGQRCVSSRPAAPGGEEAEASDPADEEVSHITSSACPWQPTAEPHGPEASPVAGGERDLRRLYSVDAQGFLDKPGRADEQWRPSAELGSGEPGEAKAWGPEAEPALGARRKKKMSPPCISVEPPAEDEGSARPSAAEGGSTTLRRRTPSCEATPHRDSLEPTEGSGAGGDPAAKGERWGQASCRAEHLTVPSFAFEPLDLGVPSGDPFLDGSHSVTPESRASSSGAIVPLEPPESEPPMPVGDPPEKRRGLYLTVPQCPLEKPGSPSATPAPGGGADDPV

The assay concerns the target T1, human Cav3.2 channel (Homo sapiens, UniProt O95180).
T1 construct: expressed in transfected cells
In words: Intracellular calcium concentration measurement in human Cav3.2 channel expressing stable cell line (Pharmacological Test 1). The class given is cell-based. The following applies: HEK293 cells stably expressing human Cav3.2, Fluo-4 AM fluorescence, KCl stimulation; read-out: Cav3.2 channel inhibitory action. The source says: (1) Construction of Human Cav3.2 Channel Expressing Stable Cell Line
A sequence in which a HindIII site and a kozak sequence (GCCACC) was provided on a 5′ side of a human Cav3.2 channel open reading frame (ORF) gene and a KpnI site was provided on a 3′ side thereof was incorporated into pcDNA3.1(+) (Thermo Fisher Scientific #V790-20), and the resultant was transfected into a HEK293 cell (ATCC No. CRL-1573) according to a protocol of FuGENE (registered trademark) HD Transfection Reagent (Promega #E2311).
(2) Method of Measuring Intracellular Calcium Concentration
The human Cav3.2 channel expressing stable cell line prepared by the test method (1) was seeded in a 96-well plate using a Dulbecco's modified Eagle's medium (DMEM medium) containing 10% fetal bovine serum (FBS), followed by culturing 37° C. for 48 hours under a 5% CO2 condition. Thereafter, the medium was removed, and each well washed with an A buffer was treated with 80 μL of a fluorescent dye solution containing a liquid mixture of 22 μg of a calcium fluorescent indicator Fluo-4 AM (Dojindo Molecular Technologies, Inc., #F311), 20 μL of dimethyl sulfoxide (DMSO), 1 μL of 10% Pluronic F-127 (Thermo Fisher Scientific #P6866), and 4 mL of the A buffer. After being left to stand for 45 minutes at room temperature under a light shielding condition, the cells were washed with a B buffer. In DMSO having the same final concentration as the test compound as a negative control, and the test compound dissolved in DMSO to have a final concentration of 0.1%, each test compound concentration solution containing the B buffer was added to each well. The cells were left to stand for additional 15 minutes at room temperature under a light shielding condition, and were measured using microplate reader EnVision (PerkinElmer Co., Ltd.) by the following method. First, after measuring background fluorescence in each well, an ionophore was added, and baseline fluorescence was measured. Thereafter, B buffer containing added KCl at a concentration of 83.8 mM was added to each well, and an increase in fluorescence due to calcium influx caused by the stimulation was measured for 10 seconds. Inhibition percentage was calculated from the maximum fluorescence increase value from the baseline, and an IC50 value was calculated by plotting a logarithmic value of the test compound concentration and inhibition activity. The measurement was performed by observing fluorescence of 510 nm emitted when the cells were irradiated with excitation light of 485 nm.
A buffer: 140 mM NaCl, 5 mM KCl, 1 mM MgCl2, 0.5 mM CaCl2, 10 mM Glucose, 10 mM HEPES, pH 7.3
B buffer: potassium equilibrium potential: −92 mV
(A change in cytosolic calcium serves as a functional read-out for many receptors and channels.)
`CCCc1ccc(NC(=O)C(C)NC(=O)C2CC2c2nc3ccccc3[nH]2)cc1` (single isomer, unassigned) [Example 1B, Trans-2-(1H-benzo[d]imidazol-2-yl)-N-(1-oxo-1-((4-propylphenyl)amino)propan-2-yl) cyclopropane-1-carboxamide]: the IC50 lay in the range of 0.1 to 1 µM. As for `CCCc1ccc(NC(=O)C(C)NC(=O)C2CC2c2nc3ccccc3[nH]2)cc1` (single isomer, unassigned) [Example 2A, Trans-2-(1H-benzo[d]imidazol-2-yl)-N-(1-oxo-1-((4-propylphenyl)amino)propan-2-yl) cyclopropane-1-carboxamide], the IC50 was 0.1 to 1 µM.

As to `CCCc1ccc(NC(=O)C(C)NC(=O)C2CC2c2nc3ccccc3[nH]2)cc1` (single isomer, unassigned) [Example 2B, Trans-2-(1H-benzo[d]imidazol-2-yl)-N-(1-oxo-1-((4-propylphenyl)amino)propan-2-yl) cyclopropane-1-carboxamide], the IC50 is more than 10 µM.

As for `CC(NC(=O)C1CC1c1nc2ccccc2[nH]1)C(=O)Nc1ccc(C(F)(F)F)nc1` (single isomer, unassigned) [Example 5B, Trans-2-(1H-benzo[d]imidazol-2-yl)-N-(1-oxo-1-((6-(trifluoromethyl)pyridin-3-yl)amino)propan-2-yl) cyclopropane-1-carboxamide], the IC50 lay within 0.1 to 1 µM. Consider `CC(NC(=O)C1CC1c1nc2ccccc2[nH]1)C(=O)Nc1ccc(C#N)cc1` (single isomer, unassigned) [Example 6A, Trans-2-(1H-benzo[d]imidazol-2-yl)-N-(1-((4-cyanophenyl)amino)-1-oxopropan-2-yl) cyclopropane-1-carboxamide], for which the IC50 fell in the range of 1 to 10 µM. For `CC(NC(=O)C1CC1c1nc2ccccc2[nH]1)C(=O)Nc1ccc(C#N)cc1` (single isomer, unassigned) [Example 6B, Trans-2-(1H-benzo[d]imidazol-2-yl)-N-(1-((4-cyanophenyl)amino)-1-oxopropan-2-yl) cyclopropane-1-carboxamide] the value was 1 to 10 µM; for `CC(NC(=O)C1CC1c1nc2ccccc2[nH]1)C(=O)Nc1ccc(C(C)(C)C)cc1` (single isomer, unassigned) [Example 7B, Trans-2-(1H-benzo[d]imidazol-2-yl)-N-(1-((4-(tert-butyl)phenyl)amino)-1-oxopropan-2-yl) cyclopropane-1-carboxamide], 0.1 to 1 µM; for `CC(NC(=O)C1CC1c1nc2ccccc2[nH]1)C(=O)N(C)c1ccc(C(F)(F)F)cc1` (single isomer, unassigned) [Example 8A, Trans-2-(1H-benzo[d]imidazol-2-yl)-N-(1-(methyl(4-(trifluoromethyl)phenyl)amino)-1-oxopropan-2-yl) cyclopropane-1-carboxamide], 0.1 to 1 µM. In the case of `CC(NC(=O)C1CC1c1nc2ccccc2[nH]1)C(=O)N(C)c1ccc(C(F)(F)F)cc1` (single isomer, unassigned) [Example 8B, Trans-2-(1H-benzo[d]imidazol-2-yl)-N-(1-(methyl(4-(trifluoromethyl)phenyl)amino)-1-oxopropan-2-yl) cyclopropane-1-carboxamide] it was 1 to 10 µM; in that of `CC(NC(=O)C1CC1c1nc2ccccc2[nH]1)C(=O)Nc1ccc(Cl)cc1` (single isomer, unassigned) [Example 16A, Trans-2-(1H-benzo[d]imidazol-2-yl)-N-(1-((4-chlorophenyl)amino)-1-oxopropan-2-yl) cyclopropane-1-carboxamide], 0.1 to 1 µM. For `CC(NC(=O)C1CC1c1nc2ccccc2[nH]1)C(=O)Nc1ccc(Cl)cc1` (single isomer, unassigned) [Example 16B, Trans-2-(1H-benzo[d]imidazol-2-yl)-N-(1-((4-chlorophenyl)amino)-1-oxopropan-2-yl) cyclopropane-1-carboxamide] the value was 1 to 10 µM.
